Assays:
Format in all cases: in vivo
[1] = tested on: Diamond back moth (Plutella xylostella); assay: Diamond back moth leaf-dip test on cabbage leaves; details: 72 h, read-out: mortality in comparison with untreated controls
Method: The active compound was dissolved at the desired concentration in a mixture of 1:1 (vol:vol) distilled water: acetone. Surfactant (Kinetic HV) was added at a rate of 0.01% (vol/vol). The test solution was prepared on the day of use.
Leaves of cabbage were dipped in test solution and air-dried. Treated leaves were placed in petri dishes lined with moist filter paper and inoculated with ten 3rd instar larvae. Mortality was recorded 72 hours after treatment. Feeding damages were also recorded using a scale of 0-100%.

[2] = tested on: Tobacco budworm (Heliothis virescens); assay: Tobacco budworm test, insect diet with eggs in 96-well microtiter plates; details: 120 h, egg and larval mortality, 5 days, read-out: mortality in comparison with untreated controls
Method: For evaluating control of tobacco budworm (Heliothis virescens) the test unit consisted of 96-well-microtiter plates containing an insect diet and 15-25 H. virescens eggs.
The compounds were formulated using a solution containing 75% v/v water and 25% v/v DMSO. Different concentrations of formulated compounds were sprayed onto the insect diet at 10 µl using a custom-built micro atomizer, at two replications.
After application, microtiter plates were incubated at about 28±1°C and about 80±5 % relative humidity for 5 days. Egg and larval mortality was then visually assessed.

[3] = tested on: Boll weevil (Anthonomus grandis); assay: Boll weevil test, insect diet with eggs in 96-well microtiter plates; details: 120 h, egg and larval mortality, 5 days, read-out: mortality in comparison with untreated controls
Method: For evaluating control of boll weevil (Anthonomus grandis) the test unit consisted of 96-well-microtiter plates containing an insect diet and 5-10 A. grandis eggs.
The compounds were formulated using a solution containing 75% v/v water and 25% v/v DMSO. Different concentrations of formulated compounds were sprayed onto the insect diet at 5 µl, using a custom-built micro atomizer, at two replications.
After application, microtiter plates were incubated at about 25±1°C and about 75±5 % relative humidity for 5 days. Egg and larval mortality was then visually assessed.

[4] = tested on: Southern armyworm (Spodoptera eridania), 2nd instar larvae; assay: Southern armyworm foliar spray test on lima bean plants; details: 96 h, 4 days after treatment, read-out: mortality in comparison with untreated controls
Method: The active compounds were formulated by a Tecan liquid handler in 100% cyclohexanone as a 10,000-ppm solution supplied in tubes. The 10,000-ppm solution was serially diluted in 100% cyclohexanone to make interim solutions. These served as stock solutions for which final dilutions were made by the Tecan in 50% acetone:50% water (v/v) into 10 or 20ml glass vials. A nonionic surfactant (Kinetic®) was included in the solution at a volume of 0.01% (v/v). The vials were then inserted into an automated electrostatic sprayer equipped with an atomizing nozzle for application to plants/insects. Lima bean plants (variety Sieva) were grown 2 plants to a pot and selected for treatment at the 1st true leaf stage. Test solutions were sprayed onto the foliage by an automated electrostatic plant sprayer equipped with an atomizing spray nozzle. The plants were dried in the sprayer fume hood and then removed from the sprayer. Each pot was placed into perforated plastic bags with a zip closure. Ten to 11 armyworm larvae were placed into the bag and the bags zipped closed. Test plants were maintained in a growth room at about 25°C and about 20-40% relative humidity for 4 days, avoiding direct exposure to fluorescent light (14:10 light:dark photoperiod) to prevent trapping of heat inside the bags. Mortality and reduced feeding were assessed 4 days after treatment, compared to untreated control plants.

[5] = tested on: Yellow fever mosquito (Aedes aegypti); assay: whole plant or invertebrate; details: 48 h, larval mortality, 2 days, read-out: mortality in comparison with untreated controls
Method: For evaluating control of yellow fever mosquito (Aedes aegypti) the test unit consisted of 96-well-microtiter plates containing 200µl of tap water per well and 5-15 freshly hatched A. aegypti larvae.
The active compounds were formulated using a solution containing 75% (v/v) water and 25% (v/v) DMSO. Different concentrations of formulated compounds or mixtures were sprayed onto the insect diet at 2.5µl, using a custom-built micro atomizer, at two replications.
After application, microtiter plates were incubated at 28±1 °C, 80±5 % RH for 2 days. Larval mortality was then visually assessed.

[6] = tested on: Green Peach Aphid (Myzus persicae); assay: Green peach aphid systemic test, artificial diet in 96-well microtiter plates; details: 72 h, adult aphids, 3 days, read-out: mortality in comparison with untreated controls
From the text: For evaluating control of green peach aphid (Myzus persicae) through systemic means the test unit consisted of 96-well-microtiter plates containing liquid artificial diet under an artificial mem brane.
The compounds were formulated using a solution containing 75% v/v water and 25% v/v DMSO. Different concentrations of formulated compounds were pipetted into the aphid diet, using a custom built pipetter, at two replications.
After application, 5-8 adult aphids were placed on the artificial membrane inside the microtiter plate wells. The aphids were then allowed to suck on the treated aphid diet and incubated at about 23±1°C and about 50±5 % relative humidity for 3 days. Aphid mortality and fecundity was then visually assessed.

CC(NC(=O)c1cc(Br)cc(C(F)(F)F)c1)c1ocnc1-c1ncc(OC(F)F)cn1 (centres unmarked) [I-1, 3-bromo-N-[1-[4-[5-(difluoromethoxy)pyrimidin-2-yl]oxazol-5-yl]ethyl]-5-(trifluoromethyl)benzamide]
≥ 75%: mortality at 300 ppm [1] | mortality at 2500 ppm [2] | mortality at 2500 ppm [3] | mortality at 300 ppm [4] | mortality at 2500 ppm [5]

CC(NC(=O)c1cc(OC(F)F)cc(C(F)(F)F)c1)c1ncoc1-c1ncccn1 (centres unmarked) [I-3, 3-(difluoromethoxy)-N-[1-(5-pyrimidin-2-yloxazol-4-yl)ethyl]-5-(trifluoromethyl)benzamide]
≥ 75%: mortality at 2500 ppm [6] | mortality at 2500 ppm [3] | mortality at 300 ppm [4] | mortality at 2500 ppm [5]

CCN(C(=O)c1cc(OC(F)F)cc(C(F)(F)F)c1)C(C)c1ncoc1-c1ncccn1 (centres unmarked) [I-5, 3-(difluoromethoxy)-N-ethyl-N-[1-(5-pyrimidin-2-yloxazol-4-yl)ethyl]-5-(trifluoromethyl)benzamide]
≥ 75%: mortality at 2500 ppm [6] | mortality at 2500 ppm [3]

— EP4198033A1, “HETEROCYCLIC COMPOUNDS FOR THE CONTROL OF INVERTEBRATE PESTS” (priority 2021, dated 2023)
